# Measurements published in patent US20230057359A1, “NOVEL USE OF STEVIOL” (SUNTORY HOLDINGS LIMITED, priority 2019, published 2023).
# Tests used:
# Format in all cases: cell-based
# [1] = system: adipocytes differentiated from normal human subcutaneous preadipocytes; experiment: Sugar uptake test in adipocytes (intracellular 2DG6P, Glucose Uptake-Glo); details: 100 μM acadesine (AICAR), 4 hours, No addition=100%
# Procedure: Normal human subcutaneous preadipocytes were precultured using the growth medium in the same manner as in Example 1. The cells were detached using 0.25% trypsin-EDTA, seeded at 10,000 cells/100 μL/well to a 96-well plate using the growth medium, and cultured overnight in a CO2 incubator. On the next day, the medium was replaced with the differentiation medium (100 μL). The cells were cultured for 10 days in a CO2 incubator to induce their differentiation into adipocytes. On the fourth and seventh days after the differentiation induction, the medium was replaced with a fresh differentiation medium (100 μL). Next, the medium was replaced with 100 μLL of a serum-free medium (PBM-2 medium supplemented with 2 mM L-glutamine, 50 μg/mL gentamycin, and 37 ng/mL amphotericin-B, Cat. No. PT-8002, Lonza Group AG), and the cells were cultured for 18 hours in a CO2 incubator. Subsequently, the medium was replaced with 100 μL of a glucose-free serum-free medium (DMEM, no glucose, Cat. No. 11966025, Thermo Fisher Scientific Inc.) supplemented with varying concentrations of steviol (10, 30 or 100 μg/mL, dissolved in 0.1% DMSO (final concentration)), and the cells were cultured for 4 hours in a CO2 incubator. A glucose-free serum-free medium supplemented with 100 μM acadesine (AICAR, Cat. No. A9978, Sigma-Aldrich Co., LLC) was used as a positive control, and a vehicle control composed of a glucose-free serum-free medium supplemented with 0.1% DMSO (final concentration) and a no-addition control composed of only a glucose-free serum-free medium were used as negative controls. After culture, intracellular 2-deoxyglucose-6-phosphate (2DG6P, 2-deoxyglucose (2DG) phosphorylation product) level was measured by the following procedures using Glucose Uptake-Glo Assay kit (Cat. No. J1341, Promega Corp.). The medium of each well was replaced with a DPBS solution (50 μL) supplemented with 1 mM 2DG. After incubation at room temperature for 10 minutes, a stop buffer (25 μL), a neutralization buffer (25 μL), and a 2DG6P detection reagent (100 μL) were added thereto. After incubation at room temperature for 60 minutes, luminescence intensity was measured using a plate reader (VARIOSKAN FLASH, Thermo Fisher Scientific Inc.), and relative luminescence intensity was regarded as a relative intracellular 2DG6P level. Significant difference among the test groups to be compared (no-addition group vs positive control group, vehicle control group vs steviol addition group) was tested by the Student's t test. The two-tailed test was conducted, and P<0.05 was regarded as having significant difference.
# [2] = system: adipocytes differentiated from normal human subcutaneous preadipocytes; experiment: Lipolysis test in adipocytes (free glycerol in culture supernatant); details: 10 μM isoproterenol, 24 hours, No addition=100%
# Procedure: Normal human subcutaneous preadipocytes were precultured using the growth medium in the same manner as in Example 1. The cells were detached using 0.25% trypsin-EDTA, seeded at 10,000 cells/100 μL/well to a 96-well plate using the growth medium, and cultured overnight in a CO2 incubator. On the next day, the medium was replaced with the differentiation medium (100 μL), and the cells were cultured for 10 days in a CO2 incubator to induce their differentiation into adipocytes. On the fourth and seventh days after the differentiation induction, the medium was replaced with a fresh differentiation medium (100 μL). Next, the medium was replaced with a differentiation medium supplemented with varying concentrations of steviol (10, 30 or 100 μg/mL, dissolved in 0.1% DMSO (final concentration)), and the cells were cultured for 24 hours in a CO2 incubator. Then, a free glycerol level in a culture supernatant was measured using Adipolysis Assay Kit (Cat. No. 10009381, Cayman Chemical Co.) according to the manufacturer's protocol. For the measurement, absorbance (540 nm) was measured using a plate reader (VARIOSKAN FLASH, Thermo Fisher Scientific Inc.), and a relative free glycerol concentration was calculated. A differentiation medium supplemented with 10 μM isoproterenol (ISP) was used as a positive control, and a vehicle control (DMSO) composed of a differentiation medium supplemented with 0.1% DMSO (final concentration) and a no-addition control composed of only the differentiation medium were used as negative controls. Significant difference among the test groups to be compared (no-addition group vs positive control group, vehicle control group vs steviol addition group) was tested by the Student's t test. The two-tailed test was conducted, and P<0.05 was regarded as having significant difference.
# [3] = system: normal human subcutaneous preadipocytes differentiated into adipocytes; experiment: Fat accumulation test in adipocytes (oil red staining); details: 25 mM LiCl, 10 days, DMSO=100%
# Procedure: Normal human subcutaneous preadipocytes were precultured using the growth medium in the same manner as in Example 1. The cells were detached using 0.25% trypsin-EDTA, seeded at 10,000 cells/100 μL/well to a 96-well plate using a growth medium, and cultured overnight in a CO2 incubator. On the next day, the medium was replaced with 100 μL of a differentiation medium supplemented with varying concentrations of steviol (12.5, 25, 50, 100 or 200 μg/mL, dissolved in 0.1% DMSO (final concentration)). The cells were cultured for 10 days in a CO2 incubator to induce their differentiation into adipocytes. On the fourth and seventh days after the differentiation induction, the medium was replaced with a fresh medium (100 μL) having the same composition as above. A differentiation medium supplemented with 25 mM LiCl (Cat. No. SML0559, Sigma-Aldrich Co., LLC) was used as a positive control, and a differentiation medium supplemented with 0.1% DMSO (final concentration) was used as a negative control. Cells cultured in a growth medium were used as an untreated control (Untreated). The cells thus cultured were subjected to oil red staining. Specifically, the cells were washed twice with 100 μL of DPBS (Cat. No. 14190250, Thermo Fisher Scientific Inc.). Then, the cells were fixed (room temperature, 10 min) in 100 μL of a 10% formalin solution (Cat. No. 061-00416, FUJIFILM Wako Pure Chemical Corp.). The cells were washed twice with 100 μL of DPBS, then incubated for 1 minute in 100 μL of 60% 2-propanol (Cat. No. 166-04836, FUJIFILM Wako Pure Chemical Corp.) that replaced the medium, and stained for 15 minutes in 100 μL of an oil red staining solution (Cat. No. 00625, Sigma-Aldrich Co., LLC) that replaced the 2-propanol solution. The cells were washed once with 100 μL of 60% 2-propanol and washed twice with 100 μL of DPBS. Then, cell images were taken in 100 μL of DPBS. After subsequent replacement with 120 μL of 100% 2-propanol, oil red was extracted by incubation for 5 minutes, and 100 μL of the extracts was transferred to each well of a fresh 96-well plate. Absorbance (520 nm) was measured using a plate reader (VARIOSKAN FLASH, Thermo Fisher Scientific Inc.), and a relative fat accumulation level was calculated. Significant difference of differentiation non-induced group vs differentiation induced group (negative control group) was tested (two-tailed), and P<0.05 was regarded as having significant difference. Also, significant difference of negative control group vs steviol addition group/positive control group was tested (two-tailed) by the Dunnett test, and P<0.05 was regarded as having significant difference.
# HepG2 cells [4] = experiment: Fat accumulation test in hepatocytes (oil red staining, oleic acid); details: 2 mM metformin, 0.2 mM oleic acid, 24 hours, DMSO=100%
# Procedure: Normal human subcutaneous preadipocytes were precultured using the growth medium in the same manner as in Example 1. The cells were detached using 0.25% trypsin-EDTA, seeded at 10,000 cells/100 μL/well to a 96-well plate using a growth medium, and cultured overnight in a CO2 incubator. On the next day, the medium was replaced with 100 μL of a differentiation medium supplemented with varying concentrations of steviol (12.5, 25, 50, 100 or 200 μg/mL, dissolved in 0.1% DMSO (final concentration)). The cells were cultured for 10 days in a CO2 incubator to induce their differentiation into adipocytes. On the fourth and seventh days after the differentiation induction, the medium was replaced with a fresh medium (100 μL) having the same composition as above. A differentiation medium supplemented with 25 mM LiCl (Cat. No. SML0559, Sigma-Aldrich Co., LLC) was used as a positive control, and a differentiation medium supplemented with 0.1% DMSO (final concentration) was used as a negative control. Cells cultured in a growth medium were used as an untreated control (Untreated). The cells thus cultured were subjected to oil red staining. Specifically, the cells were washed twice with 100 μL of DPBS (Cat. No. 14190250, Thermo Fisher Scientific Inc.). Then, the cells were fixed (room temperature, 10 min) in 100 μL of a 10% formalin solution (Cat. No. 061-00416, FUJIFILM Wako Pure Chemical Corp.). The cells were washed twice with 100 μL of DPBS, then incubated for 1 minute in 100 μL of 60% 2-propanol (Cat. No. 166-04836, FUJIFILM Wako Pure Chemical Corp.) that replaced the medium, and stained for 15 minutes in 100 μL of an oil red staining solution (Cat. No. 00625, Sigma-Aldrich Co., LLC) that replaced the 2-propanol solution. The cells were washed once with 100 μL of 60% 2-propanol and washed twice with 100 μL of DPBS. Then, cell images were taken in 100 μL of DPBS. After subsequent replacement with 120 μL of 100% 2-propanol, oil red was extracted by incubation for 5 minutes, and 100 μL of the extracts was transferred to each well of a fresh 96-well plate. Absorbance (520 nm) was measured using a plate reader (VARIOSKAN FLASH, Thermo Fisher Scientific Inc.), and a relative fat accumulation level was calculated. Significant difference of differentiation non-induced group vs differentiation induced group (negative control group) was tested (two-tailed), and P<0.05 was regarded as having significant difference. Also, significant difference of negative control group vs steviol addition group/positive control group was tested (two-tailed) by the Dunnett test, and P<0.05 was regarded as having significant difference. […] HepG2 cells were precultured using the growth medium in the same manner as in Example 5. The cells were detached using 0.25% trypsin-EDTA, seeded at 30,000 cells/100 μL/well to a 96-well plate using the growth medium, and cultured overnight in a CO2 incubator. On the next day, the medium was replaced with 100 μL of a test medium (DMEM (high glucose) supplemented with 0.2 mM oleic acid (Cat. No. 03008, Sigma-Aldrich), 10% FBS and 1% penicillin-streptomycin) supplemented with varying concentrations of steviol (12.5, 25, 50, 100 or 200 μg/mL, dissolved in 0.1% DMSO (final concentration)). The cells were cultured for 24 hours in a CO2 incubator. A test medium supplemented with 2 mM metformin (Cat. No. M2009, Tokyo Chemical Industry Co., Ltd.) was used as a positive control (Metformin), and a vehicle control composed of a test medium supplemented with 0.1% DMSO (final concentration) was used as a negative control (DMSO). Cells cultured in a test medium containing no oleic acid was used as an untreated control (Untreated). The cells thus cultured were subjected to oil red staining in the same manner as in Example 3, followed by photographing and calculation of a relative fat accumulation level. […]
# HepG2 cells [5] = experiment: TG accumulation test in hepatocytes (Adipogenesis Assay Kit, oleic acid); details: 2 mM metformin, 0.2 mM oleic acid, 24 hours, DMSO=100%
# Procedure: HepG2 cells were precultured using the growth medium in the same manner as in Example 5. The cells were detached using 0.25% trypsin-EDTA, seeded at 30,000 cells/100 μL/well to a 96-well plate using the growth medium, and cultured overnight in a CO2 incubator. On the next day, the medium was replaced with 100 μL of a test medium (DMEM (high glucose) supplemented with 0.2 mM oleic acid (Cat. No. 03008, Sigma-Aldrich), 10% FBS and 1% penicillin-streptomycin) supplemented with varying concentrations of steviol (12.5, 25, 50, 100 or 200 μg/mL, dissolved in 0.1% DMSO (final concentration)). The cells were cultured for 24 hours in a CO2 incubator. A test medium supplemented with 2 mM metformin (Cat. No. M2009, Tokyo Chemical Industry Co., Ltd.) was used as a positive control (Metformin), and a vehicle control composed of a test medium supplemented with 0.1% DMSO (final concentration) was used as a negative control (DMSO). Cells cultured in a test medium containing no oleic acid was used as an untreated control (Untreated). The cells thus cultured were subjected to oil red staining in the same manner as in Example 3, followed by photographing and calculation of a relative fat accumulation level. An intracellular triglyceride (TG) level in cells separately cultured under the same conditions as in the cells employed in the oil red staining was quantified using Adipogenesis Assay Kit (BioVision Inc.) according to the manufacturer's protocol. Absorbance (570 nm) was measured using a plate reader (VARIOSKAN FLASH, Thermo Fisher Scientific Inc.), and a relative TG level was calculated. Significant difference of untreated group vs fat accumulation induction group (negative control group) was tested (two-tailed) by the Student's t test as to the relative fat accumulation level and the relative TG level, and P<0.05 was regarded as having significant difference. Also, significant difference of negative control group vs steviol addition group/positive control group was tested (two-tailed) by the Dunnett test, and P<0.05 was regarded as having significant difference. The results of the fat accumulation test are shown in Table 6 and FIG. 6, and the results of the TG accumulation test are shown in Table 7 and FIG. 7.
smiles,measurement,setting,value
"NC(=O)c1ncn([C@@H]2O[C@H](CO)[C@@H](O)[C@H]2O)c1N [AICAR, acadesine, reference compound]",Relative luminescence intensity (%) (relative intracellular 2DG6P level),[1],194.9%
"CC(C)NCC(O)c1ccc(O)c(O)c1 (centres unmarked) [ISP, isoproterenol, reference compound]",Relative lipolysis level (%),[2],184.4%
"[Cl-].[Li+] [LiCl, reference compound]",Relative fat accumulation level (%),[3],56.3%
"CN(C)C(=N)N=C(N)N [Metformin, metformin, reference compound]",Relative fat accumulation level (%),HepG2 cells [4],79.4%
same,Relative TG level (%),HepG2 cells [5],76.0%
